Several values for one entry are separate records, joined by “and”; a condition that tells them apart may be missing. Identical values can stand only once. Records with an inconclusive call do not appear.
Test system: BDF1 mice, s.c. Lewis lung carcinoma, T/C %
Experiment: NCI In Vivo Anticancer Drug Screen. Data for tumor model Lewis Lung Carcinoma (subcutaneous) in B6D2F1 (BDF1) mice
Method in brief: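 The value reflects a ratio in which the treated cohort's survival time or tumour size is compared against mice receiving only vehicle.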

CC[C@]1(O)C[C@H]2CN(CCc3c([nH]c4ccccc34)[C@@](C(=O)OC)(c3cc4c(cc3OC)N(C)[C@H]3[C@@](O)(C(=O)OC)[C@H](OC(C)=O)[C@]5(CC)C=CCN6CC[C@]43[C@@H]65)C2)C1
T/C (endpoint: mean tumor weight, dose: 0.12 mg/kg/injection, schedule: Q01DX011 (ip), vehicle: saline, higher = larger tumour): 109 % of control | T/C (endpoint: mean tumor weight, dose: 0.24 mg/kg/injection, schedule: Q01DX011 (ip), vehicle: saline, higher = larger tumour): 94 % of control | T/C (endpoint: mean tumor weight, dose: 0.36 mg/kg/injection, schedule: Q01DX011 (ip), vehicle: saline, higher = larger tumour): 84 % of control | T/C (endpoint: mean tumor weight, dose: 0.54 mg/kg/injection, schedule: Q01DX011 (ip), vehicle: saline, higher = larger tumour): 99 % of control | T/C (endpoint: mean tumor weight, dose: 0.8 mg/kg/injection, schedule: Q01DX011 (ip), vehicle: saline, higher = larger tumour): 60 % of control | T/C (endpoint: mean tumor weight, dose: 0.81 mg/kg/injection, schedule: Q01DX011 (ip), vehicle: saline, higher = larger tumour): 111 % of control | T/C (endpoint: mean tumor weight, dose: 125.0 micrograms/kg/injection, schedule: Q01DX011 (ip), vehicle: saline, higher = larger tumour): 61 % of control | T/C (endpoint: mean tumor weight, dose: 250.0 micrograms/kg/injection, schedule: Q01DX011 (ip), vehicle: saline, higher = larger tumour): 53 % of control | T/C (endpoint: median survival time, dose: 0.06 mg/kg/injection, schedule: Q01DX009 (ip), vehicle: saline, higher = longer survival): 101 % of control and 118 % of control | T/C (endpoint: median survival time, dose: 0.12 mg/kg/injection, schedule: Q01DX009 (ip), vehicle: saline, higher = longer survival): 88 % of control | T/C (endpoint: median survival time, dose: 0.25 mg/kg/injection, schedule: Q01DX009 (ip), vehicle: saline, higher = longer survival): 96 % of control

OCC1OC(Oc2ccc(O)cc2)C(O)C(O)C1O (stereo not given)
T/C (endpoint: median survival time, dose: 50.0 mg/kg/injection, schedule: Q01DX009 (ip), vehicle: saline, higher = longer survival): 95 % of control | T/C (endpoint: median survival time, dose: 100.0 mg/kg/injection, schedule: Q01DX009 (ip), vehicle: saline, higher = longer survival): 106 % of control | T/C (endpoint: median survival time, dose: 200.0 mg/kg/injection, schedule: Q01DX009 (ip), vehicle: saline, higher = longer survival): 92 % of control | T/C (endpoint: median survival time, dose: 400.0 mg/kg/injection, schedule: Q01DX009 (ip), vehicle: saline, higher = longer survival): 106 % of control

C=C1C(=O)OC2CC(C)C3(O)CCC(C)(CC(OC(=O)C(C)C)C12)O3 (stereo not given)
T/C (endpoint: median survival time, dose: 50.0 mg/kg/injection, schedule: Q01DX009 (ip), vehicle: Klucel (hydroxypropylcellulose) (HPC), higher = longer survival): 92 % of control | T/C (endpoint: median survival time, dose: 100.0 mg/kg/injection, schedule: Q01DX009 (ip), vehicle: Klucel (hydroxypropylcellulose) (HPC), higher = longer survival): 106 % of control

CC(=O)OCC(=O)[C@@]1(O)CC[C@H]2[C@@H]3C[C@H](C)C4=CC(=O)C=C[C@]4(C)[C@@]3(Br)[C@@H](O)C[C@@]21C
T/C (endpoint: mean tumor weight, dose: 0.56 mg/kg/injection, schedule: Q01DX011 (sc), vehicle: steriod suspending solution, higher = larger tumour): 89 % of control | T/C (endpoint: mean tumor weight, dose: 1.12 mg/kg/injection, schedule: Q01DX011 (sc), vehicle: steriod suspending solution, higher = larger tumour): 69 % of control | T/C (endpoint: mean tumor weight, dose: 4.5 mg/kg/injection, schedule: Q01DX011 (sc), vehicle: steriod suspending solution, higher = larger tumour): 57 % of control and 72 % of control | T/C (endpoint: mean tumor weight, dose: 5.3 mg/kg/injection, schedule: Q01DX011 (sc), vehicle: steriod suspending solution, higher = larger tumour): 50 % of control | T/C (endpoint: mean tumor weight, dose: 7.9 mg/kg/injection, schedule: Q01DX011 (sc), vehicle: steriod suspending solution, higher = larger tumour): 45 % of control | T/C (endpoint: mean tumor weight, dose: 9.0 mg/kg/injection, schedule: Q01DX011 (sc), vehicle: steriod suspending solution, higher = larger tumour): 52 % of control | T/C (endpoint: mean tumor weight, dose: 11.8 mg/kg/injection, schedule: Q01DX011 (sc), vehicle: steriod suspending solution, higher = larger tumour): 31 % of control | T/C (endpoint: mean tumor weight, dose: 17.7 mg/kg/injection, schedule: Q01DX011 (ip), vehicle: carboxymethylcellulose (CMC), higher = larger tumour): 44 % of control | T/C (endpoint: mean tumor weight, dose: 17.7 mg/kg/injection, schedule: Q01DX011 (sc), vehicle: steriod suspending solution, higher = larger tumour): 28 % of control and 38 % of control | T/C (endpoint: mean tumor weight, dose: 18.0 mg/kg/injection, schedule: Q01DX011 (sc), vehicle: steriod suspending solution, higher = larger tumour): 42 % of control | T/C (endpoint: mean tumor weight, dose: 26.6 mg/kg/injection, schedule: Q01DX011 (ip), vehicle: carboxymethylcellulose (CMC), higher = larger tumour): 48 % of control | T/C (endpoint: mean tumor weight, dose: 26.6 mg/kg/injection, schedule: Q01DX011 (sc), vehicle: steriod suspending solution, higher = larger tumour): 37 % of control | T/C (endpoint: mean tumor weight, dose: 27.0 mg/kg/injection, schedule: Q01DX011 (sc), vehicle: steriod suspending solution, higher = larger tumour): 37 % of control | T/C (endpoint: mean tumor weight, dose: 40.0 mg/kg/injection, schedule: Q01DX011 (ip), vehicle: carboxymethylcellulose (CMC), higher = larger tumour): 13 % of control | T/C (endpoint: mean tumor weight, dose: 40.0 mg/kg/injection, schedule: Q01DX011 (sc), vehicle: steriod suspending solution, higher = larger tumour): 32 % of control | T/C (endpoint: mean tumor weight, dose: 50.0 mg/kg/injection, schedule: Q01DX011 (ip), vehicle: carboxymethylcellulose (CMC), higher = larger tumour): 59 % of control | T/C (endpoint: mean tumor weight, dose: 60.0 mg/kg/injection, schedule: Q01DX011 (ip), vehicle: carboxymethylcellulose (CMC), higher = larger tumour): 6 % of control | T/C (endpoint: mean tumor weight, dose: 60.0 mg/kg/injection, schedule: Q01DX011 (sc), vehicle: steriod suspending solution, higher = larger tumour): 34 % of control

Source: PubChem BioAssay AID270 (DTP/NCI, 2004)
